Laboratory results reported in article PMC7998855 (Toxins, 2021).
Values joined by “and” are separate entries in the source; they are usually repeats but may differ in a detail not shown here. Equal entries are not always repeated.

Experiments:
mucin 5AC [1] = details: 2 µM DON, 48 h incubation; cited from earlier work
Experimental: In addition to the investigation of barrier integrity, interest in the influence of mycotoxins on the intestinal mucus layer recently emerged, whereby data is still scarce. […] In addition to the different incubation times a ...

[2] = test system: differentiated C2BBe1 cells; type: cell-based, human; details: for TEER, normalized to solvent control: SD
[3] = test system: differentiated Caco-2 (C2BBe1) cell monolayer; type: cell-based, human; details: 24 h incubation with toxin (CER 1-100 ng/mL, DON 0.1-10 µg/mL), then 0.1 mg/mL LY apical in HBSS pH 7.4, 1 h, 37 °C, basolateral fluorescence, 3 biological replicates
[4] = test system: differentiated Caco-2 (C2BBe1) cells
[5] = test system: tight junction protein claudin-4 (CLD-4); assay: Immunofluorescence staining of claudin-4; type: cell-based, human; details: 24 h, mean ± SD, 3 biological replicates, at least 9 optical fields
mucin 5AC [6] = assay: Immunofluorescence staining of mucin 5AC; type: cell-based, human; details: 24 h, 3 biological replicates; for mucin 5AC fluorescence intensity compared to the solvent control: mean ± SD, SD
[7] = test system: differentiated Caco-2 cells; assay: LC-MS/MS of CER in transwell compartments (uptake); type: in vitro ADME, human; details: 24 h; for CER concentration in basolateral medium: apical application, mean ± SD, 3 biological replicates, SD

In the case of CC1=C[C@H]2O[C@@H]3[C@H](O)C[C@](C)([C@@]2(CO)[C@H](O)C1=O)[C@]31CO1 [DON, deoxynivalenol], the “mucin 5AC in cell lysates of Caco-2 cells” value (mucin 5AC [1]) is given as “upregulation of mucin 5AC”, the “TEER, normalized to solvent control” value [2] is given as 116 ± 12% and 116 ± 6% and the “Effect on paracellular passage of Lucifer Yellow” value [3] is given as “no significant effects”. The “DON concentration in cell lysates” value [4] was “< LOD”, the “Detection of DON in apical medium, basolateral medium and cell lysates” value [4] was “detected in all compartments and incubation conditions, except the cell lysates treated with the lowest toxin concentration” and the “CLD-4 immunofluorescence intensity in comparison to the solvent control” value (“CLD-4 immunofluorescence intensity” for short) ([5]; 10 µg/mL DON) was 127 ± 38%. The “mucin 5AC fluorescence intensity vs solvent control” value (mucin 5AC [6]; DON alone (1 and 10 µg/mL)) was “no significant effect”.
In the case of cereulide, the TEER [2] is reported as “no impact”, the “TEER, normalized to solvent control” value [2] is reported as 193 ± 7% and 163 ± 34% and the “Effect on paracellular passage of Lucifer Yellow” value [3] is reported as “no significant effects”. For the same compound, the “CLD-4 immunofluorescence intensity” value ([5]; 10 ng/mL CER) was 173 ± 41%, the “CLD-4 immunofluorescence intensity” value ([5]; 100 ng/mL CER) was 138 ± 49% and the “CER concentration in basolateral medium” value ([7]; 100 ng/mL CER with 10 µg/mL DON, transwell) was 0.07 ± 0.05 ng/mL medium. The “CER concentration in basolateral medium” value ([7]; 100 ng/mL CER without DON, transwell) was 0.04 ± 0.02 ng/mL medium, the “CER in cell lysates” value ([7]; 1-100 ng/mL CER with or without DON) was “detected in the cell lysates of all samples” and the “CER in the apical compartment” value ([7]; 1-100 ng/mL CER with or without DON, transwell) was “quantified in all treatment conditions”. For the same compound, the “mucin 5AC fluorescence intensity compared to the solvent control” value (mucin 5AC [6]; 10 ng/mL CER) was 80 ± 14% and the “mucin 5AC fluorescence intensity compared to the solvent control” value (mucin 5AC [6]; 100 ng/mL CER) was 73 ± 20%.
